Reference: ChEMBL document CHEMBL6120974, “Hydrazide-Based Class I Selective HDAC Inhibitors Completely Reverse Chemoresistance Synergistically in Platinum-Resistant Solid Cancer Cells” (J Med Chem, 2024)
≈ marks a conversion by molar mass, not a printed value. Calls of active or inactive are those of the source. No cut-off for these calls is given here.

Tests used:
A2780 = assay: Effect of Bcl-2 protein level in human A2780 cells at 0.75 uM incubated for 48 hrs by Immunoblotting analysis; format: functional, cell-based
A2780cisR = assay: Effect of Bcl-2 protein level in cisplatin resistant human A2780 cisR cells at 2 uM incubated for 48 hrs by Immunoblotting analysis; format: functional, cell-based
[1] = biological target: T1, Protein deacetylase HDAC6 (Homo sapiens) (UniProt Q9UBN7); assay: (§1) Inhibition of N-terminal GST-tagged full length recombinant human HDAC6 (1 to 1215 end residues) expressed in sf9 cells at > 3.33 uM using ZMAL (Z-Lys(Ac)-AMC as fluorogenic substrate preincubated with compound for 60 mins followed by substrate addition and measured after 90 mins by fluorescence based microplate reader analysis relative to control
T1 sequence (whole entry): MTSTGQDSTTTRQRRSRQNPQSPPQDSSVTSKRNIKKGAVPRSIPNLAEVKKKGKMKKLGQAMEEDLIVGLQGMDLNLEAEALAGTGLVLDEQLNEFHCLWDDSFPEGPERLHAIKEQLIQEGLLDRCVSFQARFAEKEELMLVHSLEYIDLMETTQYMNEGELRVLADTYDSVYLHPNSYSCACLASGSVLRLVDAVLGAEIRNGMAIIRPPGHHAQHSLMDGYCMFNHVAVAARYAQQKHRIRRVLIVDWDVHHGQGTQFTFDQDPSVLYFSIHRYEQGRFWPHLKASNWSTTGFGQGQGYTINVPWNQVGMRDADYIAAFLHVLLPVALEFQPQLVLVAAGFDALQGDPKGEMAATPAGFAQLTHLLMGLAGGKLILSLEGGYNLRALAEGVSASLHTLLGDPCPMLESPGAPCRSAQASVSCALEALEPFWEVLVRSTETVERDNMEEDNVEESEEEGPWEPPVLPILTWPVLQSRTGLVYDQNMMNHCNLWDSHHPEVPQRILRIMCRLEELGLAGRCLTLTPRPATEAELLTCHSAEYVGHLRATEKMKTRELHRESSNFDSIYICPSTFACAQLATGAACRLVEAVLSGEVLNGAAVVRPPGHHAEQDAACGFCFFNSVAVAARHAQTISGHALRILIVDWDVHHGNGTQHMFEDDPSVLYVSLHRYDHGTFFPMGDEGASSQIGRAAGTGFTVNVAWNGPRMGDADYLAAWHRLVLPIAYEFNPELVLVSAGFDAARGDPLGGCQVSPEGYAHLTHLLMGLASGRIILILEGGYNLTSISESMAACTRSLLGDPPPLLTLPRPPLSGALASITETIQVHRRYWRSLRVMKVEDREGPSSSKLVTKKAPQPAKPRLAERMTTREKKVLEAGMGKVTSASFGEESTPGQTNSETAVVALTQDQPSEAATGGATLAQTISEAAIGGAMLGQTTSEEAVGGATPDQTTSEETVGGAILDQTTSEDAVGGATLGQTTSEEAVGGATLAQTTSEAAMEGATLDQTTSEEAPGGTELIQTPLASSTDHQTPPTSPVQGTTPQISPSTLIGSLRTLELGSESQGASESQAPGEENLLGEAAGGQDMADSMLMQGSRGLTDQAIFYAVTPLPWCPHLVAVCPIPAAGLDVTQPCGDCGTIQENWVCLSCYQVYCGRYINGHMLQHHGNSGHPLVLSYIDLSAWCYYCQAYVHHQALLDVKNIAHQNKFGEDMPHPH

Cal27CisR [2] = assay: Induction of apoptosis in cisplatin resistant human Cal27CisR cells assessed as decrease in survivin expression at 0.316 uM in presence of cisplatin at 16.5 uM preincubated with compound for 24 to 72 hrs prior to addition of cisplatin and measured after 24 hrs by Immunoblotting analysis; format: functional, cell-based; conditions: time 48-96 hrs
Cal27CisR [3] = assay: Induction of apoptosis in cisplatin resistant human Cal27CisR cells assessed as decrease in p21 expression at 0.316 uM in presence of cisplatin at 16.5 uM preincubated with compound for 24 to 72 hrs prior to addition of cisplatin and measured after 24 hrs by Immunoblotting analysis; format: functional, cell-based; conditions: time 48-96 hrs
Cal27CisR [4] = assay: Induction of apoptosis in cisplatin resistant human Cal27CisR cells assessed as decrease in BIM expression at 0.316 uM incubated for 24 to 72 hrs by Immunoblotting analysis; format: functional, cell-based; conditions: time 24-72 hrs
[5] = biological target: T1, Protein deacetylase HDAC6 (Homo sapiens); assay: as §1, with “10” for “3.33”; conditions: time 150.0 min
Cal27CisR [6] = assay: Induction of apoptosis in cisplatin resistant human Cal27CisR cells assessed as decrease in p21 expression at 0.316 uM incubated for 24 to 72 hrs by Immunoblotting analysis; format: functional, cell-based; conditions: time 24-72 hrs
Cal27CisR [7] = assay: Induction of apoptosis in cisplatin resistant human Cal27CisR cells assessed as decrease in Bcl-2 expression at 0.316 uM incubated for 24 to 72 hrs by Immunoblotting analysis; format: functional, cell-based; conditions: time 24-72 hrs
Cal27CisR [8] = assay: Induction of apoptosis in cisplatin resistant human Cal27CisR cells assessed as decrease in Bcl-2 expression at 0.316 uM in presence of cisplatin at 16.5 uM preincubated with compound for 24 to 72 hrs prior to addition of cisplatin and measured after 24 hrs by Immunoblotting analysis; format: functional, cell-based; conditions: time 48-96 hrs
Cal27CisR [9] = assay: Induction of apoptosis in cisplatin resistant human Cal27CisR cells assessed as decrease in survivin expression at 0.316 uM incubated for 24 to 72 hrs by Immunoblotting analysis; format: functional, cell-based; conditions: time 24-72 hrs
[10] = Solubility of the compound in PBS buffer at pH 7.4 incubated for 72 hrs by HPLC/UV analysis; format: physicochemical

SMILES | Activity (A2780) | Activity (A2780cisR) | inhibition [1] | Activity (Cal27CisR [2]) | Activity (Cal27CisR [3]) | Activity (Cal27CisR [4]) | inhibition [5] | Activity (Cal27CisR [6]) | Activity (Cal27CisR [7]) | Activity (Cal27CisR [8]) | Activity (Cal27CisR [9]) | solubility at 72 h [10]
CCCCNNC(=O)c1ccc(CN(CC(=O)NCc2ccccc2)C(=O)c2ccc(N(C)C)cc2)cc1 | inactive | inactive | < 25% |  |  |  |  |  |  |  |  | 
CCCNNC(=O)c1ccc(CN(CC(=O)NCc2ccccc2)C(=O)c2ccc(N(C)C)cc2)cc1 |  |  |  | Active | Active | inactive | < 25% | inactive | inactive | Active | inactive | 16.8 µg/mL (≈ 33.5 µM)
